From patent US12383545B1, “Treatment of migraine” (priority 2018, dated 2025)

Tests used:
[1] = human, in vivo
Method: Data was also evaluated from Study C (described in Example 3) and Study D, a Phase 2b/3 clinical trial evaluating the efficacy, safety, and tolerability of orally administered atogepant. In Study D, after a 28 day baseline period, a total of 652 patients were randomized 1:2:2:2 to receive either atogepant 10 mg (n=94), atogepant 30 mg (n=185), atogepant 60 mg (n=187) or placebo (n=186).
The proportion of patients with weight decrease ≥7% at any point was 2.8% for placebo, 3.8% for atogepant 10 mg, 3.2% for atogepant 30 mg, and 4.9% for atogepant 60 mg. No patients in either study discontinued atogepant due to decreased weight.

[2] = system: participants with episodic migraine; assay: Study A: adverse events (safety population); assay type: in vivo, human; settings: for Deaths, n (%) / TEAE Constipation, n (%) / TEAE Fatigue, n (%) / TEAE Gastroenteritis, n (%) / TEAE Influenza, n (%) / TEAE Nasopharyngitis, n (%) / TEAE Nausea, n (%) / TEAE Sinus Congestion, n (%) / TEAE Sinusitis, n (%) / TEAE Somnolence, n (%) / TEAE Upper Respiratory Tract Infection, n (%) / TEAE Urinary Tract Infection, n (%): Study A, safety population
Method: Adverse events were reported by participants throughout the trial, and at a 4-week follow-up visit. Adverse event information was collected and documented during each clinic visit. Participants could also report adverse events via telephone call between visits. Causality of each adverse event was determined by the investigator who was blinded to the treatment. In addition, clinical laboratory tests, vital signs, electrocardiograms (ECG), and Columbia-Suicide Severity Rating Scale were evaluated. Based on the potential hepatotoxicity of prior gepants, treatment-emergent elevations in ALT or AST ≥3 times the upper limit of normal, as well as potential Hy's law cases, were evaluated as prespecified adverse events of special interest and were reviewed by an independent panel of liver experts blinded to treatment (see, e.g., Negro A et al., CGRP Receptor Antagonists: an expanding drug class for acute migraine? Expert Opin Investig Drugs 2012; 21:807-18; Messina R et al., CGRP—a target for acute therapy in migraine: Clinical Data. Cephalalgia 2019; 39:420-7).
Safety population included all randomized participants who took at least 1 dose of trial treatment. Participants are only counted once within each category. Percentages are calculated at 100×(n/N), where n is the number of participants within a specific category and N is the number of participants in the safety population for the treatment group. Adverse events are listed in decreasing order based on frequency reported in the overall population.

[3] = system: participants with episodic migraine; assay: Study B: adverse events (atogepant 60 mg QD vs oral standard of care); assay type: in vivo, human
Method: Study B: A phase 3, multicenter, randomized, open label study was conducted to evaluate the long-term safety and tolerability of oral atogepant for the prevention of migraine in participants with episodic migraine (Study B). The study objective was to evaluate the safety and tolerability of daily treatment with atogepant 60 mg QD when administered over 52 weeks for the prevention of migraine in participants with episodic migraine.
A total of 744 participants from 106 sites were randomized in a ratio of 5:2 to the following treatment groups: atogepant 60 mg QD or oral standard of care (SOC) migraine prevention medication. The latter arm was included to contextualize safety data from the atogepant-treated participants, and efficacy measures were collected from the atogepant arm only. Efficacy measures were evaluated using the modified intent-to-treat (mITT) population and a mixed-effects model for repeated measures and included changes from baseline in monthly migraine days (MDDs), moderate/severe headache days, and acute medication use days, as well as the proportion of responders based on reductions in MMDs.
Regardless of which of these options was chosen, the participant was allowed to continue in the study. […]

C[C@@H]1[C@H](c2c(F)ccc(F)c2F)C[C@H](NC(=O)c2cnc3c(c2)C[C@@]2(C3)C(=O)Nc3ncccc32)C(=O)N1CC(F)(F)F [atogepant]
TEAE Weight decreased [1]: 5 (0.4%) n (%)
Deaths, n (%) ([2]; 10 mg QD): (0.0) %
TEAE Constipation, n (%) ([2]; 10 mg QD): (7.7) %
TEAE Fatigue, n (%) ([2]; 10 mg QD): (1.4) %
TEAE Gastroenteritis, n (%) ([2]; 10 mg QD): (0.9) %
TEAE Influenza, n (%) ([2]; 10 mg QD): (1.4) %
TEAE Nasopharyngitis, n (%) ([2]; 10 mg QD): (1.8) %
TEAE Nausea, n (%) ([2]; 10 mg QD): (5.0) %
TEAE Sinus Congestion, n (%) ([2]; 10 mg QD): (0.5) %
TEAE Sinusitis, n (%) ([2]; 10 mg QD): (1.8) %
TEAE Somnolence, n (%) ([2]; 10 mg QD): (3.2) %
TEAE Upper Respiratory Tract Infection, n (%) ([2]; 10 mg QD): (4.1) %
TEAE Urinary Tract Infection, n (%) ([2]; 10 mg QD): (1.4) %
Deaths, n (%) ([2]; 30 mg QD): (0.0) %
TEAE Constipation, n (%) ([2]; 30 mg QD): (7.0) %
TEAE Fatigue, n (%) ([2]; 30 mg QD): (3.1) %
TEAE Gastroenteritis, n (%) ([2]; 30 mg QD): (2.2) %
TEAE Influenza, n (%) ([2]; 30 mg QD): (0.9) %
TEAE Nasopharyngitis, n (%) ([2]; 30 mg QD): (3.5) %
TEAE Nausea, n (%) ([2]; 30 mg QD): (4.4) %
TEAE Sinus Congestion, n (%) ([2]; 30 mg QD): (0.9) %
TEAE Sinusitis, n (%) ([2]; 30 mg QD): (1.3) %
TEAE Somnolence, n (%) ([2]; 30 mg QD): (1.8) %
TEAE Upper Respiratory Tract Infection, n (%) ([2]; 30 mg QD): (5.7) %
TEAE Urinary Tract Infection, n (%) ([2]; 30 mg QD): (3.9) %
Deaths, n (%) ([2]; 60 mg QD): (0.0) %
TEAE Constipation, n (%) ([2]; 60 mg QD): (6.9) %
TEAE Fatigue, n (%) ([2]; 60 mg QD): (3.9) %
TEAE Gastroenteritis, n (%) ([2]; 60 mg QD): (1.3) %
TEAE Influenza, n (%) ([2]; 60 mg QD): (2.2) %
TEAE Nasopharyngitis, n (%) ([2]; 60 mg QD): (3.5) %
TEAE Nausea, n (%) ([2]; 60 mg QD): (6.1) %
TEAE Sinus Congestion, n (%) ([2]; 60 mg QD): (1.7) %
TEAE Sinusitis, n (%) ([2]; 60 mg QD): (2.2) %
TEAE Somnolence, n (%) ([2]; 60 mg QD): (1.7) %
TEAE Upper Respiratory Tract Infection, n (%) ([2]; 60 mg QD): (3.9) %
TEAE Urinary Tract Infection, n (%) ([2]; 60 mg QD): (3.9) %
cases of constipation mild in severity ([2]; human, in vivo, 12 weeks): 71.4%
cases of constipation moderate in severity ([2]; human, in vivo, 12 weeks): 26.5%
cases of nausea mild in severity ([2]; human, in vivo, 12 weeks): 77.1%
cases of nausea moderate in severity ([2]; human, in vivo, 12 weeks): 22.9%
frequency of upper respiratory tract infection ([2]; human, in vivo, 12 weeks): 3.9-5.7%
Death, n (%) ([3]; 52-week open-label, atogepant 60 mg QD or standard of care, safety population): (0.4) %
deaths reported (considered not related to atogepant) ([3]; atogepant 60 mg QD): Two
